# Test results from patent publication US4370331A, “L-Glaucine containing composition for cough relief” (Karl O. Helm Aktiengesellschaft, priority 1977, dated 1983).
# “And” between values parts separate entries of the source, which are not always exact repeats. Equal entries are not always repeated. Structures can show the parent of a compound that is named as a salt. Where two headings read alike, the source gives them in different places.
# Tests used:
# mice = test: Toxicity (LD50) in mice by the Wilcox method, Comparative test 7; assay type: in vivo
# Method: (§1) The toxicity thresholds of codeine phosphate, of d-glaucine hydrobromide and of d,l-glaucine hydrobromide were determined in mice by the Wilcox method. […] The toxicities of codeine phosphate and d,l-glaucine hydrobromide are about equal.
# [1] = test system: isolated guinea pig intestine (spasms induced by carbachol); test: Suppression of spasms induced by carbachol in isolated guinea pig intestine; conditions: Cavia porcellus, read-out: concentration effective against carbachol induced spasms
# Excerpt: In further tests it was investigated in what concentrations the active substances being compared suppress spasms induced in isolated guinea pig intestine by carbachol or histamine. […] On the other hand d,l-glaucine was effective against histamine at molar concentrations of only 4×10^-8 to 4×10^-6 and against carbachol at molar concentrations of only 4×10^-7.
# anti-cough effectiveness = test: Oral anti-cough effectiveness in guinea pigs, 5% acid aerosol, Comparative test 8; assay type: in vivo; conditions: 1 h before 10 min exposure to 5% acid aerosol, last 5 minutes measured
# cough pulses [2] = test: Oral citric acid aerosol cough test in guinea pigs, 1 h (equivalent effective doses), Comparative test 6; assay type: in vivo; conditions: for Cough pulses percent of control value: 20% citric acid aerosol 8 min
# [3] = test system: isolated guinea pig intestines (contractions induced by electric voltages); test: Suppression of electrically induced contractions in isolated guinea pig intestines, Comparative test 4; conditions: isolated guinea pig intestine; codeine: increased doses; d-glaucine: higher concentrations than 4×10^-5; d,l-glaucine: 4×10^-5 to 6×10^-5
# cough pulses [4] = test: Citric acid aerosol cough test in guinea pigs, subcutaneous, 30 min (method of Friebel and Reichle), Comparative test 1; assay type: in vivo; conditions: s.c.; for ED50: Cavia porcellus, sc, 0.5 h, 30 min after administering, 20% citric acid aerosol, 8 min
# Method: In order to compare the anti-cough effectiveness of codeine phosphate with the effectiveness of the different isomers of glaucine hydrobromide, the testing method of Friebel and Reichle was used. 60 guinea pigs with weights between 200 and 300 g were divided up into ten groups of different sizes. Before administering the active substance, each animal was subjected, on the same day as the day of test with the active substance, for a period of 8 minutes to an aerosol of 20% citric acid, the animal being confined in a chamber at constant air pressure. During this control test the number of cough pulses was counted with the help of a pressure transmitter. From these measurements an average control value for each group was calculated. After this preliminary control test, there was given subcutaneously to each animal of each group a suspension of the active substance in 1% sodium carboxymethyl cellulose. After 30 minutes each animal was again exposed in the test chamber for 8 minutes to the aerosol of 20% citric acid and the number of cough pressure pulses recorded. The different active substances were administered in increasing doses ranging from 3 mg/kg to 100 mg/kg of body weight. Altogether eight different doses were given. The results were expressed as percent deviation from the average control value for the group on the same day, the deviation being entered in a diagram against the logarithm of the dose administered. From the resulting effectiveness curve, based on the logarithm of the dose, the coefficient of correlation and the ED50 were calculated for each active substance, by the regression analysis method of Downie and Heath (1965). The values obtained for codeine phosphate, for d-glaucine hydrobromide, for d,l-glaucine hydrobromide and for l-glaucine hydrobromide thirty minutes after administering the active substance are summarized in Table I.
# [5] = Toxicity (LD50) in mice by the Wilcox method, Comparative test 7; assay type: in vivo; conditions: mouse, in vivo
# Method: as §1
# coughing centre = test: Coughing reflex by electrical stimulation of upper laryngeal nerves of anaesthetized cats (method of Domenjoz), Comparative test 5; assay type: in vivo; conditions: intravenous, anaesthetized cats
# Method: In a series of tests conducted by the method of Domenjoz, the effects of the different active substances on the coughing centre was examined by electrical stimulation of the upper laryngeal nerves of anaesthetized cats. Electrical stimulation of the nerve produces a coughing reflex and the intention is to reduce this by intravenous injection of the active substance. The minimal effective dose MED is determined by increasing the dose from 0.1 mg/kg of body weight up to 0.3 mg/kg, 1.0 mg/kg, 3.0 mg/kg and 6.0 mg/kg, until the dose is sufficient for completely suppressing the coughing reflex.
# In these tests each animal was given, on the one hand, codeine and, on the other hand, at sufficient time intervals also glaucine, so that the ratio of the minimal effective doses of glaucine and codeine can be deduced.
# [6] = test system: isolated guinea pig intestines (contractions induced by electric voltages); test: Suppression of electrically induced contractions in isolated guinea pig intestines, Comparative test 4; set-up: electrically induced contractions (Table III): unit not given here
# Method: In a further series of tests the effects of different doses of codeine phosphate in suppressing contractions induced in isolated guinea pig intestines by electric voltages were tested. For this purpose one electrode was immersed in the solution surrounding the intestinal preparation. The second electrode was connected to the preparation at the attachment point.
# cough pulses [7] = test: Oral citric acid aerosol cough test in guinea pigs, time course 1-24 h, Comparative test 6; assay type: in vivo; conditions: codeine phosphate 75, d,l-glaucine hydrobromide 150, hydrochloride 135, embonate 378 mg/kg
# Method: In a further comparative test, 40 female guinea pigs with body weights between 230 and 500 g were divided into 4 groups and each animal was again subjected to the action of a 20% citric acid aerosol for 8 minutes. From the control values thus obtained the average control value for each group was calculated. Each animal of each group was then given, by means of a throat probe, either 75 mg/kg of codeine phosphate, or 135 mg/kg of d,l-glaucine hydrochloride, or 150 mg/kg of d,1-glaucine hydrobromide, or 378 mg/kg of d,l-glaucine embonate. These doses are the equimolar quantities, based on glaucine. After a period of 1, or 3, or 5, or 24 hours each animal was again subjected for 8 minutes to the action of the citric acid aerosol, and the number of cough pulses during this period was recorded. The values thus obtained were compared with the control values and the percent deviation of the average measured value for each group, from the average control value, was calculated.
# intestinal motility = test: Intestinal motility / evacuation action of stomach-intestinal tract of mice (carbon suspension), Comparative test 2; assay type: in vivo; conditions: s.c.; for Distance travelled average % (of intestine length): 2 h, control 74.3%, * = significantly different from control (p < 0.05)
# Excerpt: One of the most unpleasant side effects of anti-cough medicine containing codeine is constipation and the occurrence of intestinal spasms. A model test for determining the effects of anti-cough active substances on intestinal motility and on the evacuation action of the stomach-intestinaltract of mice was therefore made. After subcutaneous injection of the active substance, each animal was given, through a throat probe, a 10% suspension of carbon in a 5% aqueous slurry of gum arabic. Two hours later the intestine was sectioned and the distance of stomach coecum measured, and also the distance travelled by the carbon, which was expressed as percent of intestine length.
# The effects of codeine phosphate, of d-glaucine hydrobromide and of l-glaucine hydrobromide on intestinal motility were determined at different doses. For each dose the average value was calculated for a sufficient number of animals.
smiles,measurement,setting,value
"COc1cc2c(cc1OC)-c1c(OC)c(OC)cc3c1C(C2)N(C)CC3 (racemic) [d,l-glaucine]","toxicity, comparison in words",mice,considerably less toxic than d-glaucine
same,minimal effective concentration,[1],0.4 µM
"COc1cc2c(cc1OC)-c1c(OC)c(OC)cc3c1[C@@H](C2)N(C)CC3 [1-glaucine-d-tartrate, l-glaucine-d-tartrate]",Oral ED50,anti-cough effectiveness; 60 min,"6,8 mg/kg"
"COc1ccc2c3c1O[C@H]1[C@@H](O)C=C[C@H]4[C@@H](C2)N(C)CC[C@@]341 [codeine phosphate, reference compound]",Cough pulses percent of control value,cough pulses [2]; 50 mg/kg,37%
same,Cough pulses percent of control value,cough pulses [2]; 100 mg/kg,50%
same,"dose having about the same effect (codeine phosphate vs d,l-glaucine hydrobromide)",cough pulses [2]; guinea pigs,~75 mg per kg of body weight
same,"induced spontaneous activity, in words",[3],the spontaneous activity induced by the codeine phosphate itself increases the contractions
same,ED50,cough pulses [4],20.6 mg/kg
same,LD50,"[5]; po, peroral, read-out: LD50 peroral",640 mg/kg
same,LD50,"[5]; sc, subcutaneous, read-out: LD50 subcutaneous",230 mg/kg
same,"toxicity, comparison in words",mice,about equal
same,minimal effective dose,"coughing centre; Felis catus, read-out: MED (minimal effective dose completely suppressing the coughing reflex)",6 mg/kg
same,Duration of cough suppression,coughing centre; at MED,18 to 54 min
same,inhibition at 10 µM,"[6]; Cavia porcellus, molar concentration of about 10^-5, read-out: suppression of electrically induced contraction reflexes",~50%
same,electrically induced contractions (Table III),[6]; molar concentration 1 × 10^-5,49
same,electrically induced contractions (Table III),[6]; molar concentration 2 × 10^-5,36 and 52
same,electrically induced contractions (Table III),[6]; molar concentration 4 × 10^-5,58
same,electrically induced contractions (Table III),[6]; molar concentration 5 × 10^-6,85 and 51
same,"Cough pulses during 8 minutes, percent of control value, after 1 h",cough pulses [7]; 1 h,84%
same,"Cough pulses during 8 minutes, percent of control value, after 3 h",cough pulses [7]; 3 h,70%
same,"Cough pulses during 8 minutes, percent of control value, after 5 h",cough pulses [7]; 5 h,84%
same,"Cough pulses during 8 minutes, percent of control value, after 24 h",cough pulses [7]; 24 h,95%
same,Distance travelled average % (of intestine length),intestinal motility; 3 mg/kg,70.4%
same,Distance travelled average % (of intestine length),intestinal motility; 10 mg/kg,74.3%
same,Distance travelled average % (of intestine length),intestinal motility; 30 mg/kg,34.8%
same,Distance travelled average % (of intestine length),intestinal motility; 100 mg/kg,20.6%
COc1cc2c(cc1OC)-c1c(OC)c(OC)cc3c1[C@@H](C2)N(C)CC3 [l-glaucine hydrobromide],ED50,cough pulses [4],31.2 mg/kg
same,"ED50 value, comparison in words",cough pulses [4]; 30 min,considerably lower effective dose ED50 value compared to d-glaucine hydrobromide
same,"suppression of electrically induced contraction reflexes, in words",[6]; 4×10^-5,"more effectively suppressed, compared to what is obtained using d-glaucine hydrobomide"
same,"suppression of electrically induced contractions, in words",[6]; 8×10^-5,suppressed even more effectively
same,electrically induced contractions (Table III),"[6]; molar concentration 1 × 10^-5, hydrobromide",71 and 74
same,electrically induced contractions (Table III),"[6]; molar concentration 2 × 10^-5, hydrobromide",64 and 32
same,electrically induced contractions (Table III),"[6]; molar concentration 4 × 10^-5, hydrobromide",24 and 23
same,electrically induced contractions (Table III),[6]; molar concentration 8 × 10^-5,7
same,ED50,"anti-cough effectiveness; Cavia porcellus, po, 1 h",7.21 mg/kg
same,Distance travelled average % (of intestine length),intestinal motility; 3 mg/kg,74.3%
same,"intestinal activity, in words",intestinal motility; 10 mg/kg,significant increase in intestinal activity
same,Distance travelled average % (of intestine length),intestinal motility; 10 mg/kg,94.3%
same,"intestinal motility, in words",intestinal motility; 30 mg/kg and 100 mg/kg,considerably more than the corresponding values for d-glaucine hydrobromide and codeine phosphate
same,Distance travelled average % (of intestine length),intestinal motility; 30 mg/kg,85.4%
same,Distance travelled average % (of intestine length),intestinal motility; 100 mg/kg,51.8%
